Assay results reported in patent publication US20110311601A1, “ANTIMICROBIAL MEDICAL DEVICES” (priority 2010, published 2011).
Where no end group is shown, it is not given here.

How the values were obtained:
Assay in all cases: micro-dilution assay (MBC, LD90)
[1] = tested on: Stahylococcus aureus ATCC 12600; assay type: cell-based, Staphylococcus aureus
Procedure: The anti-bacterial activity of hβD2 was tested by a micro-dilution assay. Bacteria and fungi were streaked from a glycerol stock onto a Brain Heart Infusion (BHI) agar plate (3.7% w/v BHI Bouillon, 1.5% w/v Agar), grown overnight at 37° C. and 30° C., respectively and subsequently used to inoculate 40 ml of 3.7% w/v BHI Bouillon without any antibiotics in 100 ml flasks. Fresh cells were harvested by centrifugation at 16000 rpm for 10 min and washed twice with 10 mM sodium phosphate buffer, pH 7.2. The optical density was adjusted to 10^4 cells/ml. For anti-bacterial testing hβD2 was incubated in one well of a microtiter plate containing 100 μl of the bacterial suspension. Therefore, ten microlitres of hβD2 solution with a range of final concentrations tested from 0.0125 up to and including 100 mg/l was added to the bacterial suspension and incubated at 37° C. and 30° C., respectively for 2 h before colony forming units were determined. Colony forming units (CFU) were determined after plating 100 μl of a 1:100 dilution of the bacterial suspension on petri dishes with BHI medium and incubating them overnight at 37° C. For every group of the hβD2 added samples and the controls, 5 independent anti-bacterial assays were performed. A control (NC) of bacterial growth was examined for every independent assay. […]

[2] = tested on: Acinetobacter Genosp. 10 ATCC 17924; assay type: cell-based
Summary of the method: (§1)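 hβD2, final 0.0125–100 mg/l, 2 h in 10 mM Na phosphate pH 7.2 with 10^4 cells/ml; 37° C bacteria, 30° C fungi. Read-out: CFU on BHI plates overnight, normalised to no-peptide control. MBC 99.9% kill; LD90 90% kill; n = 5.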

[3] = tested on: Acinetobacter calcoaceticus ATCC 23055; assay type: cell-based
Summary of the method: as §1

[4] = tested on: Acinetobacter genosp. 3 ATCC 19004; assay type: cell-based
Summary of the method: as §1

[5] = tested on: Aeeromonas hydrophila ATCC 7966; assay type: cell-based
Summary of the method: as §1

[6] = tested on: Candida glabrata BK 9570/02 (wild-type); assay type: cell-based
Summary of the method: as §1

[7] = tested on: E. coli (ESBL 3) Va 4425/01 (wild-type); assay type: cell-based
Summary of the method: as §1

[8] = tested on: Enterococcus faecalis ATCC 51299 VRE; assay type: cell-based
Summary of the method: as §1

[9] = tested on: Fusobacterium nucleatum ATCC 10953; assay type: cell-based
Summary of the method: as §1

[10] = tested on: Helicobacter pylori ATCC 49503; assay type: cell-based
Summary of the method: as §1

[11] = tested on: Klebsiella pneumoniae ATCC 700603 ESBL; assay type: cell-based
Summary of the method: as §1

[12] = tested on: Propionibacterium acnes NCTC 737; assay type: cell-based
Summary of the method: as §1

[13] = tested on: Proteus mirabilis (ESBL 8) (wild-type); assay type: cell-based
Summary of the method: as §1

[14] = tested on: Proteus mirabilis ATCC 21100; assay type: cell-based
Summary of the method: as §1

[15] = tested on: Proteus vulgaris UR 1464/03 (wild-type); assay type: cell-based
Summary of the method: as §1

[16] = tested on: Providencia stuartii NCTC 10318; assay type: cell-based
Summary of the method: as §1

[17] = tested on: Pseudomonas aeruginosa CF 645 (mukoid)(wild-type); assay type: cell-based
Summary of the method: as §1

[18] = tested on: Salmonella typhimurium ATCC 13311; assay type: cell-based
Summary of the method: as §1

[19] = tested on: Serratia marcescens Mero 103/013 (wild-type); assay type: cell-based
Summary of the method: as §1

[20] = tested on: Stenotrophomonas maltophilia ATCC 10257; assay type: cell-based
Summary of the method: as §1

[21] = tested on: Streptococcus mutans ATCC 35668; assay type: cell-based
Summary of the method: as §1

[22] = tested on: Streptococcus pneumoniae ATCC 33400; assay type: cell-based
Summary of the method: as §1

Substance: human β-defensin-2 (GIGDPVTCLKSGAICHPVFCPRRYKQIGTCGLPGTKCCKKP; ends and bridges not checked; cysteine pairing not given here) [hβD2, recombinant hβD2]
- LD 90 = μg/ml 90% killing [1]: 25 µg/mL
- MBC = μg/ml 99.9% killing [1]: 100 µg/mL
- LD 90 = μg/ml 90% killing [2]: 0.39 µg/mL
- MBC = μg/ml 99.9% killing [2]: 1.56 µg/mL
- LD 90 = μg/ml 90% killing [3]: 0.39 µg/mL
- MBC = μg/ml 99.9% killing [3]: 0.78 µg/mL
- LD 90 = μg/ml 90% killing [4]: 0.2 µg/mL
- MBC = μg/ml 99.9% killing [4]: 0.78 µg/mL
- LD 90 = μg/ml 90% killing [5]: 100 µg/mL
- MBC = μg/ml 99.9% killing [5]: >100 µg/mL
- LD 90 = μg/ml 90% killing [6]: >100 µg/mL
- MBC = μg/ml 99.9% killing [6]: >100 µg/mL
- LD 90 = μg/ml 90% killing [7]: 6.25 µg/mL
- MBC = μg/ml 99.9% killing [7]: 12.5 µg/mL
- LD 90 = μg/ml 90% killing [8]: 50 µg/mL
- MBC = μg/ml 99.9% killing [8]: 100 µg/mL
- LD 90 = μg/ml 90% killing [9]: 3.125 µg/mL
- MBC = μg/ml 99.9% killing [9]: 3.125 µg/mL
- LD 90 = μg/ml 90% killing [10]: 12.5 µg/mL
- MBC = μg/ml 99.9% killing [10]: 50 µg/mL
- LD 90 = μg/ml 90% killing [11]: 25 µg/mL
- MBC = μg/ml 99.9% killing [11]: 100 µg/mL
- LD 90 = μg/ml 90% killing [12]: 50 µg/mL
- MBC = μg/ml 99.9% killing [12]: 100 µg/mL
- LD 90 = μg/ml 90% killing [13]: 100 µg/mL
- MBC = μg/ml 99.9% killing [13]: >100 µg/mL
- LD 90 = μg/ml 90% killing [14]: 50 µg/mL
- MBC = μg/ml 99.9% killing [14]: >100 µg/mL
- LD 90 = μg/ml 90% killing [15]: 3.125 µg/mL
- MBC = μg/ml 99.9% killing [15]: 12.5 µg/mL
- LD 90 = μg/ml 90% killing [16]: 100 µg/mL
- MBC = μg/ml 99.9% killing [16]: >100 µg/mL
- LD 90 = μg/ml 90% killing [17]: 25 µg/mL
- MBC = μg/ml 99.9% killing [17]: 12.5 µg/mL
- LD 90 = μg/ml 90% killing [18]: 1.56 µg/mL
- MBC = μg/ml 99.9% killing [18]: 6.25 µg/mL
- LD 90 = μg/ml 90% killing [19]: 100 µg/mL
- MBC = μg/ml 99.9% killing [19]: >100 µg/mL
- LD 90 = μg/ml 90% killing [20]: 6.25 µg/mL
- MBC = μg/ml 99.9% killing [20]: 25 µg/mL
- LD 90 = μg/ml 90% killing [21]: 100 µg/mL
- MBC = μg/ml 99.9% killing [21]: >100 µg/mL
- LD 90 = μg/ml 90% killing [22]: 25 µg/mL
- MBC = μg/ml 99.9% killing [22]: 50 µg/mL
